For the compound `CN1C(=S)C(c2ccc(OC(F)(F)F)cc2)(c2cccc(-c3cccnc3F)c2)N=C1N` (stereo not given), the melting point lay within 89 to 99 °C.
`CC(=O)OC1CCC2(C)C(=CCC3C2CCC2(C)C(C(C)=O)=CCC32)C1` (stereo not given) displayed a melting point of 169 to 172 °C.
On to `COc1nc(C)c(C)cc1NC(=S)N1CCN(c2cc(F)cc(F)c2)CC1`, for which the melting point is 60 to 62 °C.
Compound `O=C(NC(=O)c1c(F)cccc1F)Nc1cncc(C(F)(F)F)c1` displayed a melting point of 233 to 235 °C.
Under `COC(=O)C1=C(C)NC(C)=C(P(=O)(OC)OC)C1c1cccc([N+](=O)[O-])c1` (stereo not given) stands 221 to 223 °C; under `CC(C)c1nc(CN(C)C(=O)N[C@H](C(=O)N[C@@H](Cc2ccccc2)C[C@H](O)[C@H](Cc2ccccc2)NC(=O)OCc2cnco2)C(C)C)cs1`, 59 to 61 °C.
In the case of `CC(C)(CCCCOCCCCc1ccc(N2CCOCC2)cc1)NCC(O)c1ccc(O)c(NS(C)(=O)=O)c1` (stereo not given), the melting point fell in the range of 165 to 167 °C.
In turn, `CCN1C(=O)CCCc2cc(Nc3ncc(Cl)c(N[C@@H]4CCCC[C@H]4NS(C)(=O)=O)n3)c(OC)cc21` gave a melting point of 120 to 128 °C.
In the case of `O=C(CCc1ccccc1)NC1CCC(=O)N2CCCC(C(=O)NC3CC(=O)OC3OCc3ccccc3)N2C1=O` (stereo not given), the melting point lay in the range of 92 to 94 °C.
As for `O=Cc1cc(OCc2ccccc2)ccc1O`, the melting point lay in the range of 94 to 96 °C.
`Cc1cc(Br)cnc1CCCCNC1=NS(=O)(=O)c2ccc(Cl)cc21` registered a melting point of 231 to 235 °C.
As for `O=S(Cc1noc(Cc2ccccc2)n1)c1ccc(CCNC[C@H](O)COc2ccc(O)cc2)cc1` (stereo not given in full), the figure is 51 to 57 °C; as for `O=C1NCc2cnc(Nc3ccc(N4CCC(CCCO)CC4)cc3)nc2N1C1CCCC1`, greater than 230 °C; as for `Nc1nc(NCC(O)CO)c2ncn(C3C=CC(CO)C3)c2n1` (stereo not given), 119 to 121 °C.
The compound `N#CCc1c(Cl)nc(-c2ccc([N+](=O)[O-])cc2)n1Cc1ccccc1` came in with a melting point of 125 to 128 °C.
As for `N#Cc1ccc(OCCOc2ccc(C#N)cc2)cc1`, the figure is 196 to 197 °C.
Regarding `CCCCCCCC(=O)c1ccc(CCOS(=O)(=O)c2ccc(C)cc2)cc1`, the melting point fell in the range of 59 to 60 °C.
As for `CCC(C)C(NC(=O)C(CS)C(F)(F)F)C(=O)O` (stereo not given), the figure is 140 to 142 °C; as for `Cc1ccc(S(=O)(=O)OCC2CCc3ccc4[nH]c(C(F)(F)F)nc4c3O2)cc1` (stereo not given), 160 °C.
Consider `CC(=O)OC1CCC2(C)C(=CCC3C2CCC2(C)C(C(C)CO)=CCC32)C1` (stereo not given), for which the melting point lay in the range of 170 to 171 °C.
As for `CC(NC(=O)c1cccnc1Oc1cccnc1)c1ccc(Cl)s1` (single isomer, unassigned; (+)), the figure is 83 to 85 °C; as for `c1ccc2c(c1)C[C@H]1CSC(=Nc3csc4cnccc34)N1C2`, 180 °C; as for `COc1ccc(C(=CC#N)c2ccc(OC)c(OC)c2)cc1NC(C)=O`, 139 to 141 °C.
Under `CCOC(=O)N1C(=NC#N)NC(C)=C(C(=O)OC)C1c1cccc(Cl)c1Cl` (stereo not given) stands 176 to 178 °C; under `Cc1cc(Nc2cc(F)c(F)cc2C(=O)O)n(-c2ccccn2)n1`, 247 to 248 °C.
In turn, `COCOc1ccc2cc(C=O)ccc2c1` displayed a melting point of 52 to 54 °C.
As for `COc1cnc(C(=O)O)cc1OC1CCCC1`, the figure is 184 to 185 °C; as for `Cc1cc(NC(=O)c2c(Cl)cccc2Cl)c2nccc(Cl)c2c1C`, 190 to 193 °C.
As for `Clc1nnc(Cc2ccc(OCc3ccccc3)cc2)c2ccccc12`, the figure is 150 to 152 °C; as for `CC(=O)OCC1OC(n2c(=O)sc3cnc(N)nc32)C(OC(C)=O)C1OC(C)=O` (stereo not given), 121 to 123 °C.
Under `COC(=O)c1nc2c(c(-c3ccccc3)nn2-c2ccccc2)c(N)c1C(=O)OC` stands 277 to 279 °C; under `CC(C)(C)OC(=O)NN(C(=O)c1ccccc1)C(C)(C)C`, 167 to 170 °C.
`COc1cc2c(cc1OC(C)=O)CCC1C3=CC=C(OC(C)=O)C3(C)CCC21` (stereo not given) returned a melting point of 191 to 194 °C.
As for `O=C(O)c1ccccc1-c1cc(-c2ccc(Cl)cc2)on1`, the figure is 174 to 176 °C.
`COc1cc(C2c3cc4c(cc3C(NC3=CC(=O)N(CCCCCC(=O)O)C3=O)C3COC(=O)C23)OCO4)cc(OC)c1O` (stereo not given) yielded a melting point of 150 to 152 °C.
As to `COc1ccc(Nc2nc(N)nc3[nH]c4ccccc4c23)cc1`, the melting point was 209 °C.
As to `C=CCN1C(=O)C(C)N(c2ccc(Cc3ccccc3)cc2)C1=S` (stereo not given), the melting point was 62 to 64 °C.
`O=C(O)C1=Cc2cc(OC(F)(F)F)ccc2OC1C(F)(F)F` (stereo not given) gave a melting point of 118 to 120 °C.
As for `COc1ccc(C(=O)c2cccc(C(=O)O)c2)cc1`, the figure is 183 to 186 °C; as for `Cc1nc(-c2ccc(C#N)cc2)sc1C(=O)N1CC(O)O[C@@](Cn2cncn2)(c2ccc(F)cc2F)[C@H]1C` (stereo not given in full), 225 to 228 °C.
Under `COc1ccc2c(-c3cccc(F)c3)noc2c1Cl` stands 149 to 150 °C.
As to `C=CCOC(=O)c1ccc(N=C(NC)c2ccc(OC)c(C34CC5CC(CC(C5)C3)C4)c2)cc1`, the melting point was 77 to 79 °C.
Under `Cc1nn(-c2ccccn2)c2ncc(C(=O)N(C)c3ccccc3)c(OCc3ccccc3)c12` stands 92 to 93 °C; under `O=C(CC(O)C(F)(F)F)c1cc(Cl)cc(Cl)c1` (stereo not given), 165 to 166 °C; under `CCc1nnc2c(Cl)nc3ccc(Cl)cc3n12`, greater than 250 °C.
`CC1(C)Oc2ccc(C#N)cc2[C@@H](NC(=NC#N)Oc2ccccc2)[C@@H]1O` (relative stereo) gave a melting point of 186 to 188 °C.
As for `CCCCCC(C)C(C)c1cc(OC)c2c(c1)OC(C)(C)C1=C2CN(C(N)=NO)CC1` (stereo not given), the figure is 176 to 178 °C; as for `O=S(=O)(O)c1ccc(NCc2ccc(Cl)cc2)cc1`, greater than 270 °C.
As for `CCCCN(C)C(N)=C(C#N)C(N)=S`, the figure is 163 to 165 °C.
For the compound `O=C(Cc1cc(C(=O)c2ccc(I)c([N+](=O)[O-])c2)sc1-c1ccccc1)NO`, the melting point fell in the range of 147 to 151 °C.
`COc1cc(OC)c(-c2cccs2)cc1/C=C/C(=O)c1ccc(S(=O)(=O)NN2CCCCC2)cc1` returned a melting point of 174 to 176 °C.
Take `Cc1ccc(S(=O)(=O)NC(C)P(=O)(Oc2ccccc2)c2ccccc2)cc1` (stereo not given): the melting point is 178 to 181 °C.
As for `CC12CCC3C(CC=C4C=C(OCc5ccccc5)CCC43C)C1CCC2=O` (stereo not given), the figure is 172 to 178 °C; as for `CNC(=O)Cc1c(-c2cc(C)sc2C)nc2sc3ccccc3n12`, 238 to 239 °C.
As for `OC1CCSC(=S)N1c1ccccn1` (stereo not given), the melting point turned out to be 120 °C.
`CN(Cc1cccc2c1CN(C1CCC(=O)NC1=O)C2=O)C(=O)Nc1ccccc1` (stereo not given) gave a melting point of 186 to 188 °C.
Under `COc1ccc2oc(=O)cc(Oc3c(Cl)cccc3Cl)c2c1` stands 170 to 171 °C; under `Cc1nccnc1C(=O)Nc1ccc(C(C(F)(F)F)C(F)(F)F)c(CC(C)C)c1`, 133 to 134 °C.
Compound `CN(C)CCCC(=O)OC[C@@H]1CC(c2ccc(-c3ccc(N4C[C@H](Cn5ccnn5)OC4=O)cc3F)cn2)=NO1` yielded a melting point of 148 °C.
As to `CC1C(=O)N(c2ccccc2)C(=S)N1c1ccc(Oc2ccc(O)cc2)cc1` (stereo not given), the melting point is 106 to 108 °C.

Source of the values: a melting point compilation (Tetko et al.; mined from patent text by program, amines drawn as free bases though some values may be those of a salt).
